The record followed here is the NIST ThermoML archive (doi:10.1021/acs.jced.8b00348).

SMILES strings stand for the structures. ± gives the expanded uncertainty stated by the source.

The conditions of series [1]: Liquid, Ebulliometric method (Recirculating still).
The nature of series [2]: refractive index (Na D-line) (dimensionless). The note with it: 293.15 K; 93.13 kPa; Liquid; Standard Abbe refractometry.
The nature of series [3]: refractive index (Na D-line) (dimensionless); xn = mol fraction of the nth substance listed. The settings on record: 293.15 K, 93.13 kPa, Liquid, Standard Abbe refractometry.

With `Cc1cccc(C)c1` [1,3-dimethylbenzene], the vapor or sublimation pressure (as a rule, the pressure of vapour in equilibrium with the condensed phase) in series [1] (409.13 K) stood at 93.13 ± 0.96 kPa. For the same compound, the refractive index (usually the speed of light in vacuum divided by its phase velocity in the sample) in series [2] is listed as 1.497 ± 0.0004.

`CCc1ccccc1` [ethylbenzene] + COc1ccccc1: in series [3] (x1 = 1), the refractive index is 1.4955 ± 0.0004.

Turning to `Cc1ccccc1C` [1,2-dimethylbenzene] + COc1ccccc1, in series [3] (x1 = 1), the refractive index is 1.5048 ± 0.0004.

For `COc1ccccc1` [anisole] + Cc1ccccc1C, the refractive index in series [3] (x2 = 0) is 1.517 ± 0.0004; in series [3] (x2 = 0.0825), 1.5159 ± 0.0004; in series [3] (x2 = 0.1066), 1.5156 ± 0.0004; in series [3] (x2 = 0.1439), 1.5151 ± 0.0004; in series [3] (x2 = 0.1945), 1.5144 ± 0.0004; in series [3] (x2 = 0.2976) it was 1.5131 ± 0.0004. In addition, the refractive index in series [3] (x2 = 0.3812) stood at 1.512 ± 0.0004; in series [3] (x2 = 0.4796), 1.5109 ± 0.0004; in series [3] (x2 = 0.617), 1.5092 ± 0.0004; in series [3] (x2 = 0.6785), 1.5084 ± 0.0004; in series [3] (x2 = 0.7801) it was 1.5072 ± 0.0004; in series [3] (x2 = 0.9159), 1.5057 ± 0.0004. In addition, the refractive index in series [3] (x2 = 0.9329) is on record as 1.5056 ± 0.0004.

For `COc1ccccc1` [anisole], the “vapor or sublimation pressure” value in series [1] (423.38 K) was found to be 93.13 ± 0.96 kPa. Moreover, in series [2], the refractive index worked out at 1.517 ± 0.0004.

On to `COc1ccccc1` [anisole] + Cc1ccc(C)cc1, for which the refractive index in series [3] (x2 = 0) was determined as 1.517 ± 0.0004; in series [3] (x2 = 0.0499), 1.5157 ± 0.0004; in series [3] (x2 = 0.1387), 1.5138 ± 0.0004; in series [3] (x2 = 0.1684), 1.5131 ± 0.0004; in series [3] (x2 = 0.2124) it was 1.5122 ± 0.0004; in series [3] (x2 = 0.2656), 1.511 ± 0.0004. Further, the refractive index was found to be 1.5101 ± 0.0004 in series [3] (x2 = 0.3055); 1.5078 ± 0.0004 in series [3] (x2 = 0.4128); 1.507 ± 0.0004 in series [3] (x2 = 0.4494); 1.507 ± 0.0004 in series [3] (x2 = 0.4497); 1.5057 ± 0.0004 in series [3] (x2 = 0.5122); 1.5046 ± 0.0004 in series [3] (x2 = 0.5626). The refractive index in series [3] (x2 = 0.6095) is 1.5036 ± 0.0004; in series [3] (x2 = 0.8055), 1.4995 ± 0.0004; in series [3] (x2 = 0.8904) it was 1.4978 ± 0.0004; in series [3] (x2 = 0.9613), 1.4964 ± 0.0004.

Turning to `Cc1cccc(C)c1` [1,3-dimethylbenzene] + COc1ccccc1, the refractive index in series [3] (x1 = 1) is recorded as 1.497 ± 0.0004.

On to `Cc1ccc(C)cc1` [1,4-dimethylbenzene] + COc1ccccc1, for which, in series [3] (x1 = 1), the refractive index is given as 1.4956 ± 0.0004.

With `CCc1ccccc1` [ethylbenzene], in series [1] (406.23 K), the “vapor or sublimation pressure” value was 93.13 ± 0.96 kPa. Further, the refractive index in series [2] is given as 1.4955 ± 0.0004.

As for `COc1ccccc1` [anisole] + Cc1cccc(C)c1, the refractive index in series [3] (x2 = 0) was 1.517 ± 0.0004; in series [3] (x2 = 0.0756), 1.5154 ± 0.0004; in series [3] (x2 = 0.1836), 1.5131 ± 0.0004; in series [3] (x2 = 0.2143), 1.5125 ± 0.0004; in series [3] (x2 = 0.2716) it was 1.5113 ± 0.0004; in series [3] (x2 = 0.3152), 1.5104 ± 0.0004. The refractive index turned out to be 1.5082 ± 0.0004 in series [3] (x2 = 0.4196); 1.5072 ± 0.0004 in series [3] (x2 = 0.4711); 1.5064 ± 0.0004 in series [3] (x2 = 0.5086); 1.5045 ± 0.0004 in series [3] (x2 = 0.6083); 1.5031 ± 0.0004 in series [3] (x2 = 0.6746); 1.5019 ± 0.0004 in series [3] (x2 = 0.7383). In addition, the values for the refractive index in series [3] (x2 = 0.8189), in series [3] (x2 = 0.8552) and in series [3] (x2 = 0.9339) were 1.5002 ± 0.0004, 1.4997 ± 0.0004 and 1.4982 ± 0.0004, respectively.

Regarding `Cc1ccc(C)cc1` [1,4-dimethylbenzene], in series [1] (408.37 K), the “vapor or sublimation pressure” value stood at 93.13 ± 0.96 kPa. For the same compound, the refractive index in series [2] amounted to 1.4956 ± 0.0004.

With `COc1ccccc1` [anisole] + CCc1ccccc1, the refractive index was found to be 1.517 ± 0.0004 in series [3] (x2 = 0); 1.5152 ± 0.0004 in series [3] (x2 = 0.0762); 1.5136 ± 0.0004 in series [3] (x2 = 0.1494); 1.513 ± 0.0004 in series [3] (x2 = 0.1767); 1.5122 ± 0.0004 in series [3] (x2 = 0.2118); 1.5115 ± 0.0004 in series [3] (x2 = 0.2442). The refractive index stood at 1.511 ± 0.0004 in series [3] (x2 = 0.2691); 1.5093 ± 0.0004 in series [3] (x2 = 0.3432); 1.508 ± 0.0004 in series [3] (x2 = 0.4041); 1.5077 ± 0.0004 in series [3] (x2 = 0.412); 1.5066 ± 0.0004 in series [3] (x2 = 0.4651); 1.5055 ± 0.0004 in series [3] (x2 = 0.5183). Besides, the refractive index amounted to 1.5033 ± 0.0004 in series [3] (x2 = 0.6208); 1.5019 ± 0.0004 in series [3] (x2 = 0.6885); 1.4998 ± 0.0004 in series [3] (x2 = 0.7927); 1.4975 ± 0.0004 in series [3] (x2 = 0.9056); 1.4965 ± 0.0004 in series [3] (x2 = 0.9514).

In the case of `Cc1ccccc1C` [1,2-dimethylbenzene], in series [1] (414.41 K), the “vapor or sublimation pressure” value is 93.13 ± 0.96 kPa. Moreover, the refractive index in series [2] came out at 1.5048 ± 0.0004.
